Measurements taken from patent US20230265151A1, “GIP/GLP1 CO-AGONIST COMPOUNDS” (priority 2020, published 2023).
Read-outs that look alike come from different tables or passages of the source.

Legend:
Type in all cases: cell-based
hGIPR = molecular target: T1, hGIPR (Homo sapiens, UniProt P48546); experiment: Functional cAMP formation (HTRF) in HEK-293 clonal cells expressing hGIPR, 0.1% bovine casein, without or with 1.0% human serum albumin; conditions: for EC50: geometric mean
T1 construct: expressed in transfected cells
T1 sequence (P48546 22-466): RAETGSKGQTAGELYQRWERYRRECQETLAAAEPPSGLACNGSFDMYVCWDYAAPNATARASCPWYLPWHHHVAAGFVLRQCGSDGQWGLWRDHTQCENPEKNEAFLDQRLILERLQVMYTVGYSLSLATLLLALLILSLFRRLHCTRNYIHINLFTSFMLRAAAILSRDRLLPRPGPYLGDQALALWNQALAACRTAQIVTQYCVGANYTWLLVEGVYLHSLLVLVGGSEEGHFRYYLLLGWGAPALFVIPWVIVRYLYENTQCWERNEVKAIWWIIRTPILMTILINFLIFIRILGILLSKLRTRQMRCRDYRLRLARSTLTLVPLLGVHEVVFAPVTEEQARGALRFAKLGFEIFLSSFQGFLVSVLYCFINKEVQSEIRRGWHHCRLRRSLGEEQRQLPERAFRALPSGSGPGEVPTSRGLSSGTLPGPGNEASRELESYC
Summary of the method: (§1)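 Readings of the HTRF 665/620 nm ratio, which falls as cAMP rises, were converted to nM cAMP using a standard curve after 30 min peptide exposure at 37° C.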

hGCGR = molecular target: T2, hGCGR (Homo sapiens, UniProt P47871); experiment: Functional cAMP formation (HTRF) in HEK-293 clonal cells expressing hGCGR, 0.1% bovine casein, without or with 1.0% human serum albumin; conditions: geometric mean
T2 construct: expressed in transfected cells
T2 sequence (P47871 26-477): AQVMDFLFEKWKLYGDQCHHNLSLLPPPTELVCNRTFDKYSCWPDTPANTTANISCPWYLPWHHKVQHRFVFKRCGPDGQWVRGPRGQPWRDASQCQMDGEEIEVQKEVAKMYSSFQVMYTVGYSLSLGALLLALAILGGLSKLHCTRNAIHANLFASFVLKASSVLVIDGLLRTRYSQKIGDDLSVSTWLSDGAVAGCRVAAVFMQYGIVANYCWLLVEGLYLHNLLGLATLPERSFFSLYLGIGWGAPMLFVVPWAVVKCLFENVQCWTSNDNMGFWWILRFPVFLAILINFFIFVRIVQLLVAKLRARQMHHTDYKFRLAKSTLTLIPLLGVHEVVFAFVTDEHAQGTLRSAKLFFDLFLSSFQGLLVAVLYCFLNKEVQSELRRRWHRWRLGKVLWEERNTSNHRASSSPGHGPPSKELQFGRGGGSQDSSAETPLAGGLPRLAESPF
Summary of the method: as §1

hGLP-1R = hGLP-1R (Homo sapiens, UniProt P43220); experiment: Functional cAMP formation (HTRF) in HEK-293 clonal cells expressing hGLP-1R, 0.1% bovine casein, without or with 1.0% human serum albumin; parameters: expressed in transfected cells; conditions: for EC50: geometric mean, read-out: hGLP-1R EC50, nM (SEM, n)
Chain of hGLP-1R (P43220 24-463): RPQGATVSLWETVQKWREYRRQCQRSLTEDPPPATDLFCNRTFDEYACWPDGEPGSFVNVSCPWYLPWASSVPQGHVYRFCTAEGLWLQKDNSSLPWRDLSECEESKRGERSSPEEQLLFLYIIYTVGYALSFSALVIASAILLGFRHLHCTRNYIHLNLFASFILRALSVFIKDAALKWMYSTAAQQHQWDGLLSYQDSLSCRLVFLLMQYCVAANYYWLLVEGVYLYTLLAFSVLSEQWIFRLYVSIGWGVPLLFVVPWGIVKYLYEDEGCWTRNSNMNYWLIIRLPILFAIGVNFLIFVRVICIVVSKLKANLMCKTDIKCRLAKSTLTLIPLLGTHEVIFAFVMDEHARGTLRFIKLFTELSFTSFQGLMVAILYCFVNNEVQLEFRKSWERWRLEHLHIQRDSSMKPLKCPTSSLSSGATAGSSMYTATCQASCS
Summary of the method: as §1

[1] = cAMP, incubated at 37° C., 0.1% bovine casein (no human serum albumin), read-out: hGIPR EC50, nM (SEM, n)
[2] = cAMP, incubated at 37° C., 0.1% bovine casein (no human serum albumin), read-out: hGCGR EC50, nM (SEM, n)
[3] = HEK293, percent of maximal response to GLP-1(7-36)NH2, 37° C., 0.1% bovine casein, arithmetic mean, read-out: hGLP-1R Emax, % ± SEM
[4] = HEK293, percent of maximal response to GIP(1-42)NH2, 37° C., 0.1% bovine casein, arithmetic mean, read-out: hGIPR Emax, % ± SEM
[5] = cAMP, incubated at 37° C., 0.1% bovine casein (no human serum albumin)

Compound	EC50 (hGIPR; [1]) [nM]	EC50 (hGCGR; [2]) [nM]	Emax (hGLP-1R; [3]) [%]	Emax (hGIPR; [4]) [%]	EC50 (hGLP-1R; [5]) [nM]	Emax (hGIPR; HEK293, read-out: hGIPR Emax, % ± SEM, 0.1% bovine casein and 1.0% human serum albumin, 37° C., percent of maximal response to GIP(1-42)NH2) [%]	Emax (hGIPR; HEK293, read-out: hGIPR Emax, % ± SEM, percent of maximal response to GIP(1-42)NH2, 37° C., 0.1% bovine casein, arithmetic mean) [%]	EC50 (hGIPR; hGIPR EC50, nM (SEM, n), 0.1% bovine casein and 1.0% human serum albumin, 37° C.) [nM]	EC50 (hGCGR; hGCGR EC50, nM (SEM, n), 0.1% bovine casein and 1.0% human serum albumin, 37° C.) [nM]	EC50 (hGCGR; hGCGR EC50, nM (SEM, n), cAMP, incubated at 37° C., 0.1% bovine casein (no human serum albumin)) [nM]	Emax (hGLP-1R; HEK293, read-out: hGLP-1R Emax, % ± SEM, 0.1% bovine casein and 1.0% human serum albumin, 37° C., percent of maximal response to GLP-1(7-36)NH2) [%]	EC50 (hGIPR; 0.1% bovine casein and 1.0% human serum albumin, 37° C., read-out: hGIPR EC50, nM (SEM, n)) [nM]	Emax (hGIPR; HEK293, 0.1% bovine casein and 1.0% human serum albumin, 37° C., percent of maximal response to GIP(1-42)NH2, read-out: hGIPR Emax, % ± SEM) [%]	EC50 (hGCGR; 0.1% bovine casein and 1.0% human serum albumin, 37° C., read-out: hGCGR EC50, nM (SEM, n)) [nM]	EC50 (hGLP-1R; 0.1% bovine casein and 1.0% human serum albumin, 37° C.) [nM]
CC[C@H](C)[C@H](NC(=O)[C@H](CC(C)C)NC(=O)[C@](C)(Cc1ccc(O)cc1)NC(=O)[C@@H](CCC(=O)O)NC(=O)[C@@H](NC(=O)[C@H](CC1CCCCC1)NC(=O)[C@H](CCC(=O)O)NC(=O)C(C)(C)NC(=O)[C@H](CCC(N)=O)NC(=O)[C@H](C)NC(=O)[C@H](CCCCNC(=O)COCCOCCNC(=O)COCCOCCNC(=O)CC[C@H](NC(=O)CCCCCCCCCCCCC(=O)O)C(=O)O)NC(=O)[C@H](CCCN)NC(=O)[C@H](CC(=O)O)NC(=O)[C@H](CC(C)C)NC(=O)[C@](C)(CC(C)C)NC(=O)[C@@H](NC(=O)[C@H](CO)NC(=O)[C@H](Cc1ccncc1)NC(=O)[C@H](CC(=O)O)NC(=O)[C@H](CO)NC(=O)[C@@H](NC(=O)[C@](C)(Cc1ccccc1F)NC(=O)[C@@H](NC(=O)CNC(=O)[C@H](CCC(=O)O)NC(=O)C(C)(C)NC(=O)[C@@H](N)Cc1ccc(O)cc1)[C@@H](C)O)[C@@H](C)O)[C@@H](C)CC)[C@@H](C)CC)C(=O)N[C@@H](CCC(=O)O)C(=O)NCC(=O)NCC(=O)N[C@@H](CCCCNC(=O)COCCOCCNC(=O)COCCOCCNC(=O)CC[C@H](NC(=O)CCCCCCCCCCCCC(=O)O)C(=O)O)C(=O)N[C@@H](CO)C(=O)N[C@@H](CO)C(=O)NCC(=O)N[C@@H](C)C(=O)N1CCC[C@H]1C(=O)N1CCC[C@H]1C(=O)N1CCC[C@H]1C(=O)N[C@@H](CO)C(N)=O [Example 148]	0.0209	> 9950	94.5	–	–	–	–	–	–	–	–	–	–	–	–
CCCCCCCCCCCC(=O)N[C@@H](CCC(=O)NCCOCCOCC(=O)NCCOCCOCC(=O)NCCCC[C@H](NC(=O)[C@H](CCCN)NC(=O)[C@H](CC(=O)O)NC(=O)[C@H](CC(C)C)NC(=O)[C@](C)(CC(C)C)NC(=O)[C@@H](NC(=O)[C@H](CO)NC(=O)[C@H](Cc1ccncc1)NC(=O)[C@H](CC(=O)O)NC(=O)[C@H](CO)NC(=O)[C@@H](NC(=O)[C@](C)(Cc1ccccc1F)NC(=O)[C@@H](NC(=O)CNC(=O)[C@H](CCC(=O)O)NC(=O)C(C)(C)NC(=O)[C@@H](N)Cc1ccc(O)cc1)[C@@H](C)O)[C@@H](C)O)[C@@H](C)CC)C(=O)N[C@@H](C)C(=O)N[C@@H](CCC(N)=O)C(=O)NC(C)(C)C(=O)N[C@@H](CCC(=O)O)C(=O)N[C@@H](Cc1ccccc1)C(=O)N[C@H](C(=O)N[C@H](CCC(=O)O)C(=O)N[C@@](C)(Cc1ccc(O)cc1)C(=O)N[C@@H](CC(C)C)C(=O)N[C@H](C(=O)N[C@@H](CCC(=O)O)C(=O)NCC(=O)N[C@@H](CCCCNC(=O)COCCOCCNC(=O)COCCOCCNC(=O)CC[C@H](NC(=O)CCCCCCCCCCC)C(=O)O)C(=O)N1CCC[C@H]1C(=O)N[C@@H](CO)C(=O)N[C@@H](CO)C(=O)NCC(=O)N[C@@H](C)C(=O)N1CCC[C@H]1C(=O)N1CCC[C@H]1C(=O)N1CCC[C@H]1C(=O)N[C@@H](CO)C(N)=O)[C@@H](C)CC)[C@@H](C)CC)C(=O)O [Example 140]	0.0121	> 9950	–	98.5 ± 1.71	0.131	–	–	–	–	–	–	–	–	–	–
CC[C@H](C)[C@H](NC(=O)[C@H](CCCN)NC(=O)[C@H](CC(=O)O)NC(=O)[C@H](CC(C)C)NC(=O)[C@](C)(CC(C)C)NC(=O)[C@@H](NC(=O)[C@H](CO)NC(=O)[C@H](Cc1ccncc1)NC(=O)[C@H](CC(=O)O)NC(=O)[C@H](CO)NC(=O)[C@@H](NC(=O)[C@](C)(Cc1ccccc1F)NC(=O)[C@@H](NC(=O)CNC(=O)[C@H](CCC(=O)O)NC(=O)C(C)(C)NC(=O)[C@@H](N)Cc1ccc(O)cc1)[C@@H](C)O)[C@@H](C)O)[C@@H](C)CC)C(=O)N[C@@H](C)C(=O)N[C@@H](CCC(N)=O)C(=O)NC(C)(C)C(=O)N[C@@H](CCC(=O)O)C(=O)N[C@@H](Cc1ccccc1)C(=O)N[C@H](C(=O)N[C@@H](CCCCNC(=O)COCCOCCNC(=O)COCCOCCNC(=O)CCCCCCCCCCCCC(=O)O)C(=O)N[C@@](C)(Cc1ccc(O)cc1)C(=O)N[C@@H](CC(C)C)C(=O)N[C@H](C(=O)N[C@@H](CCC(=O)O)C(=O)NCC(=O)NCC(=O)N1CCC[C@H]1C(=O)N[C@@H](CO)C(=O)N[C@@H](CO)C(=O)NCC(=O)N[C@@H](C)C(=O)N1CCC[C@H]1C(=O)N1CCC[C@H]1C(=O)N1CCC[C@H]1C(=O)N[C@@H](CO)C(=O)N[C@@H](CCCCNC(=O)COCCOCCNC(=O)COCCOCCNC(=O)CCCCCCCCCCCCC(=O)O)C(N)=O)[C@@H](C)CC)[C@@H](C)CC [Example 194]	–	–	–	–	–	80.7 ± 7.81	93.1 ± 1.05	1.24	> 9950	> 9950	109 ± 10.5	–	–	–	–
CCCCCCCCCCCC(=O)N[C@@H](CCC(=O)NCCOCCOCC(=O)NCCOCCOCC(=O)NCCCC[C@H](NC(=O)CNC(=O)CNC(=O)[C@H](CCC(=O)O)NC(=O)[C@@H](NC(=O)[C@H](CC(C)C)NC(=O)[C@](C)(Cc1ccc(O)cc1)NC(=O)[C@@H](CCC(=O)O)NC(=O)[C@@H](NC(=O)[C@](C)(Cc1ccccc1)NC(=O)[C@H](CCC(=O)O)NC(=O)C(C)(C)NC(=O)[C@H](CCC(N)=O)NC(=O)[C@H](C)NC(=O)[C@H](CCCCNC(=O)COCCOCCNC(=O)COCCOCCNC(=O)CC[C@H](NC(=O)CCCCCCCCCCC)C(=O)O)NC(=O)[C@H](CCCN)NC(=O)[C@H](CC(=O)O)NC(=O)[C@H](CC(C)C)NC(=O)[C@](C)(CC(C)C)NC(=O)[C@@H](NC(=O)[C@H](CO)NC(=O)[C@H](Cc1ccncc1)NC(=O)[C@H](CC(=O)O)NC(=O)[C@H](CO)NC(=O)[C@@H](NC(=O)[C@](C)(Cc1ccccc1)NC(=O)[C@@H](NC(=O)CNC(=O)[C@H](CCC(=O)O)NC(=O)C(C)(C)NC(=O)[C@@H](N)Cc1ccc(O)cc1)[C@@H](C)O)[C@@H](C)O)[C@@H](C)CC)[C@@H](C)CC)[C@@H](C)CC)C(=O)N[C@@H](CO)C(=O)N[C@@H](CO)C(=O)NCC(=O)N[C@@H](C)C(=O)N1CCC[C@H]1C(=O)N1CCC[C@H]1C(=O)N1CCC[C@H]1C(=O)N[C@@H](CO)C(N)=O)C(=O)O [Example 173]	0.0155	> 9950	89.9 ± 2.72	87.8 ± 6.22	0.343	–	–	–	–	–	–	1.24	92.9 ± 6.91	> 9950	29.7
